Experimental data reported in US7291630B2, “Azaindoles as inhibitors of c-Jun N-terminal kinases” (Eisai Co., Ltd., priority 2002, dated 2007).

Target: JNK3 kinase (Homo sapiens, UniProt P53779)
Assay: JNK3 SPA assay (phosphorylation of GST-c-Jun)
Type: biochemical
Details: 3.33 μM ATP, GST-c-Jun substrate, 30 minutes at room temperature
Method: JNK1, JNK2, JNK3—SPA Assay
A typical assay for testing the activity of compounds to inhibit JNK1, JNK2 and JNK3 enzymes is as follows: • 1. Compound is dissolved in DMSO to a convenient concentration and this is diluted in 10% DMSO to a five times concentrate of the desired starting concentration (frequently 1:100). • 2. 10 μl of 500 mM EDTA is added to alternative wells of the Opti-plate row, which will receive kinase reaction plus DMSO. This creates the negative control. • 3. For the JNK2 and JNK3 assay, compounds are prepared in six 2-fold dilutions with water and each concentration is tested in duplicate. For the JNK1 assay compounds are prepared in four 5-fold dilutions with water which are tested in triplicate. Controls are treated identically. • 4. 20 μl per well of each compound concentration is transferred to an Opti-plate, in duplicate. • 5. 30 μl (JNK2/3 SPA) or 50 μl (JNK1 SPA) of substrate solution (25 mM HEPES pH 7.5, 10 mM magnesium acetate with 3.33 μM ATP (JNK2/3) or 2 μM ATP (JNK1), approximately 7.5 kBq [γ-33P] ATP, GST-c-Jun, in water) is added to each well. • 6. 50 μl (JNK2/3 SPA) or 30 μl (JNK1 SPA) of kinase solution (JNK in 25 mM HEPES pH 7.5, 10 mM Mg Acetate) is added to each well.
• 7. […] Plates are sealed and incubated for 30 minutes at room temperature, centrifuged for 10 minutes at 2500 g and counted. • 10. […]

Chain of JNK3 kinase (P53779 whole entry): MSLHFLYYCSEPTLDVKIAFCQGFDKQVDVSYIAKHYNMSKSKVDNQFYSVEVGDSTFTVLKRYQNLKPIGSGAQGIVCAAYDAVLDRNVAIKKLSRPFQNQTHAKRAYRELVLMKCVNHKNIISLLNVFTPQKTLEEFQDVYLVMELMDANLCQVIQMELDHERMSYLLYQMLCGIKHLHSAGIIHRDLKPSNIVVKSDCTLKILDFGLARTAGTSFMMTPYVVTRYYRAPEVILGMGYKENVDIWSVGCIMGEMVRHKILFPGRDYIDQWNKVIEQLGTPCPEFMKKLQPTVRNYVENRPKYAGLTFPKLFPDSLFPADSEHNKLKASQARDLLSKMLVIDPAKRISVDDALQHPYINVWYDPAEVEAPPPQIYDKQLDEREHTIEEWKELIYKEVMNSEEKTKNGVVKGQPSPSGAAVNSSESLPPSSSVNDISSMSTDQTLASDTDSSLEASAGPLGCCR

| IC50 [µM] | Compound |
| --- | --- |
| < 0.5 | c1csc(-c2cnc3[nH]ccc3c2)c1 [Compound 2] |
| 1.2 | CN(C)c1ccc(-c2cnc3[nH]ccc3c2)cc1 [Compound 1] |
